Reference: patent publication US10640506B2, “Cyclobutyl substituted pyrrolopyridine and pyrrolopyrimidines derivatives as JAK inhibitors” (Incyte Corporation, priority 2010, dated 2020)
pIC50: −log10 of the molar value. Where a name gives a salt, the structure may show the parent alone.

Key:
JAK2 (a.a. 828-1132) = target: T1, JAK2 (a.a. 828-1132) (Homo sapiens, UniProt O60674); assay: In vitro JAK kinase assay (HTRF, phosphorylation of biotinylated peptide), JAK2; type: biochemical; conditions: Table F; 1 mM ATP
T1 construct: JAK2 (a.a. 828-1132); His tag (N)
In short: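 His-tagged catalytic domains of human JAK1 (a.a. 837-1142) and JAK2 (a.a. 828-1132), baculovirus-expressed, phosphorylate a biotinylated peptide for 1 hour at room temperature. Stopped with EDTA; detected by HTRF using SA-APC and Eu-Py20 antibody after 40 min binding; values binned as ranges.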

[1] = target: human JAK1 (a.a. 837-1142) (Homo sapiens, UniProt P23458); assay: In vitro JAK kinase assay (HTRF, phosphorylation of biotinylated peptide), JAK1; type: biochemical; conditions: Table F; 1 mM ATP
In short: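 His-tagged human JAK1 catalytic domain (a.a. 837-1142), baculovirus/insect-cell expressed, phosphorylates a biotinylated peptide for 1 h at room temperature. Reaction stopped with EDTA; product detected by HTRF (SA-APC, Eu-Py20, 40 min binding). IC50 reported as ranges.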

Chain of human JAK1 (a.a. 837-1142) (P23458 849-1154): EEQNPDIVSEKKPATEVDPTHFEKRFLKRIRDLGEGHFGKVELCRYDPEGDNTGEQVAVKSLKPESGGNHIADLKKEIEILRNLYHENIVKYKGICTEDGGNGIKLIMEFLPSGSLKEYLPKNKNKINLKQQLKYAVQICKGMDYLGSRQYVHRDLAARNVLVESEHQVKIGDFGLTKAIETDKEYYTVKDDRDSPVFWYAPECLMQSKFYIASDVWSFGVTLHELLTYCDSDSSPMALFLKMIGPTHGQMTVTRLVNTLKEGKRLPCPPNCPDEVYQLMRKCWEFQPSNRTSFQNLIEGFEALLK
T1 sequence (O60674 828-1132): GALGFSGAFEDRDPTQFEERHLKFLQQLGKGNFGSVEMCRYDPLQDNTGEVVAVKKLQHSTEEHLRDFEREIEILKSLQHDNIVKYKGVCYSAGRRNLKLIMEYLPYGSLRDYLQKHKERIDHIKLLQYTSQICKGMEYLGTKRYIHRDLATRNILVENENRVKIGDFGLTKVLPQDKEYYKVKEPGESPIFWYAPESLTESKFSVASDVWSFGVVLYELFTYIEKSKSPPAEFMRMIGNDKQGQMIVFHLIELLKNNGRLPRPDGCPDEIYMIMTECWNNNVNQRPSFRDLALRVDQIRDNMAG

SMILES	pIC50 (JAK2 (a.a. 828-1132))	pIC50 [1]
N#CC[C@]1(n2cc(-c3ncnc4[nH]ccc34)cn2)C[C@H](N2CCN(C(=O)N[C@@H]3CCOC3)CC2)C1 [Example 87, 4-{trans-3-(cyanomethyl)-3-[4-(7H-pyrrolo[2,3-d]pyrimidin-4-yl)-1H-pyrazol-1-yl]cyclobutyl}-N-[(3R)-tetrahydrofuran-3-yl]piperazine-1-carboxamide]	< 7.00	7.60 to 8.00
N#CC[C@]1(n2cc(-c3ncnc4[nH]ccc34)cn2)C[C@H](N2CCN(C(=O)NC3CCCC3)CC2)C1 [Example 90, 4-{trans-3-(cyanomethyl)-3-[4-(7H-pyrrolo[2,3-d]pyrimidin-4-yl)-1H-pyrazol-1-yl]cyclobutyl}-N-cyclopentylpiperazine-1-carboxamide]	7.60 to 8.00	> 8.00
N#CC[C@]1(n2cc(-c3ncnc4[nH]ccc34)cn2)C[C@H](N2CCN(C(=O)N3CC[C@H](O)C3)CC2)C1 [Example 91, {trans-3-(4-{[(3S)-3-hydroxypyrrolidin-1-yl]carbonyl}piperazin-1-yl)-1-[4-(7H-pyrrolo[2,3-d]pyrimidin-4-yl)-1H-pyrazol-1-yl]cyclobutyl}acetonitrile]	< 7.00	7.00 to 7.60
N#CC[C@]1(n2cc(-c3ncnc4[nH]ccc34)cn2)C[C@H](N2CCN(C(=O)NCC3CC3)CC2)C1 [Example 92, 4-{trans-3-(cyanomethyl)-3-[4-(7H-pyrrolo[2,3-d]pyrimidin-4-yl)-1H-pyrazol-1-yl]cyclobutyl}-N-(cyclopropylmethyl)piperazine-1-carboxamide trifluoroacetate salt]	7.00 to 7.60	> 8.00
N#CC[C@]1(n2cc(-c3ncnc4[nH]ccc34)cn2)C[C@H](N2CCN(C(N)=O)CC2)C1 [Example 95, 4-{trans-3-(cyanomethyl)-3-[4-(7H-pyrrolo[2,3-d]pyrimidin-4-yl)-1H-pyrazol-1-yl]cyclobutyl}piperazine-1-carboxamide]	7.00 to 7.60	> 8.00
N#CC[C@]1(n2cc(-c3ncnc4[nH]ccc34)cn2)C[C@H](N2CCN(C(=O)NC3CC3)CC2)C1 [Example 98, 4-{trans-3-(cyanomethyl)-3-[4-(7H-pyrrolo[2,3-d]pyrimidin-4-yl)-1H-pyrazol-1-yl]cyclobutyl}-N-cyclopropylpiperazine-1-carboxamide]	< 7.00	> 8.00
N#CC[C@]1(n2cc(-c3ncnc4[nH]ccc34)cn2)C[C@H](N2CCN(C(=O)NC3CCC3)CC2)C1 [Example 99, 4-{trans-3-(cyanomethyl)-3-[4-(7H-pyrrolo[2,3-d]pyrimidin-4-yl)-1H-pyrazol-1-yl]cyclobutyl}-N-cyclobutylpiperazine-1-carboxamide]	7.00 to 7.60	> 8.00
N#CC[C@]1(n2cc(-c3ncnc4[nH]ccc34)cn2)C[C@@H](N2CCN(C(=O)NC3CCC3)CC2)C1 [Example 104, 4-{cis-3-(cyanomethyl)-3-[4-(7H-pyrrolo[2,3-d]pyrimidin-4-yl)-1H-pyrazol-1-yl]cyclobutyl}-N-cyclobutylpiperazine-1-carboxamide]	< 7.00	7.60 to 8.00
N#CC[C@]1(n2cc(-c3ncnc4[nH]ccc34)cn2)C[C@@H](N2CCN(C(=O)NC3CC3)CC2)C1 [Example 107, 4-{cis-3-(cyanomethyl)-3-[4-(7H-pyrrolo[2,3-d]pyrimidin-4-yl)-1H-pyrazol-1-yl]cyclobutyl}-N-cyclopropylpiperazine-1-carboxamide]	< 7.00	7.60 to 8.00
N#CC[C@]1(n2cc(-c3ncnc4[nH]ccc34)cn2)C[C@@H](N2CCN(C(=O)NC3CCCC3)CC2)C1 [Example 109, 4-{cis-3-(cyanomethyl)-3-[4-(7H-pyrrolo[2,3-d]pyrimidin-4-yl)-1H-pyrazol-1-yl]cyclobutyl}-N-cyclopentylpiperazine-1-carboxamide]	7.00 to 7.60	> 8.00

The remaining lines, values ahead:

pIC50 (JAK2 (a.a. 828-1132))	pIC50 [1]	SMILES
7.00 to 7.60	> 8.00	CC(C)[C@@H](C)NC(=O)N1CCN([C@H]2C[C@](CC#N)(n3cc(-c4ncnc5[nH]ccc45)cn3)C2)CC1 [Example 93, 4-{trans-3-(cyanomethyl)-3-[4-(7H-pyrrolo[2,3-d]pyrimidin-4-yl)-1H-pyrazol-1-yl]cyclobutyl}-N-[(1R)-1,2-dimethylpropyl]piperazine-1-carboxamide]
7.00 to 7.60	> 8.00	CC(C)[C@H](C)NC(=O)N1CCN([C@H]2C[C@](CC#N)(n3cc(-c4ncnc5[nH]ccc45)cn3)C2)CC1 [Example 94, 4-{trans-3-(cyanomethyl)-3-[4-(7H-pyrrolo[2,3-d]pyrimidin-4-yl)-1H-pyrazol-1-yl]cyclobutyl}-N-[(1S)-1,2-dimethylpropyl]piperazine-1-carboxamide]
7.00 to 7.60	> 8.00	C[C@H](NC(=O)N1CCN([C@H]2C[C@](CC#N)(n3cc(-c4ncnc5[nH]ccc45)cn3)C2)CC1)C1CC1 [Example 96, 4-{trans-3-(cyanomethyl)-3-[4-(7H-pyrrolo[2,3-d]pyrimidin-4-yl)-1H-pyrazol-1-yl]cyclobutyl}-N-[(1S)-1-cyclopropylethyl]piperazine-1-carboxamide]
7.00 to 7.60	> 8.00	C[C@@H](NC(=O)N1CCN([C@H]2C[C@](CC#N)(n3cc(-c4ncnc5[nH]ccc45)cn3)C2)CC1)C1CC1 [Example 97, 4-{trans-3-(cyanomethyl)-3-[4-(7H-pyrrolo[2,3-d]pyrimidin-4-yl)-1H-pyrazol-1-yl]cyclobutyl}-N-[(1R)-1-cyclopropylethyl]piperazine-1-carboxamide]
< 7.00	7.60 to 8.00	CC(C)(C)CNC(=O)N1CCN([C@H]2C[C@](CC#N)(n3cc(-c4ncnc5[nH]ccc45)cn3)C2)CC1 [Example 100, 4-{trans-3-(cyanomethyl)-3-[4-(7H-pyrrolo[2,3-d]pyrimidin-4-yl)-1H-pyrazol-1-yl]cyclobutyl}-N-(2,2-dimethylpropyl)piperazine-1-carboxamide]
7.00 to 7.60	> 8.00	CC(C)CNC(=O)N1CCN([C@H]2C[C@](CC#N)(n3cc(-c4ncnc5[nH]ccc45)cn3)C2)CC1 [Example 101, 4-{trans-3-(cyanomethyl)-3-[4-(7H-pyrrolo[2,3-d]pyrimidin-4-yl)-1H-pyrazol-1-yl]cyclobutyl}-N-isobutylpiperazine-1-carboxamide]
7.00 to 7.60	> 8.00	CC[C@@H](C)NC(=O)N1CCN([C@H]2C[C@](CC#N)(n3cc(-c4ncnc5[nH]ccc45)cn3)C2)CC1 [Example 102, 4-{trans-3-(cyanomethyl)-3-[4-(7H-pyrrolo[2,3-d]pyrimidin-4-yl)-1H-pyrazol-1-yl]cyclobutyl}-N-[(1R)-1-methylpropyl]piperazine-1-carboxamide]
7.00 to 7.60	> 8.00	CC[C@H](C)NC(=O)N1CCN([C@H]2C[C@](CC#N)(n3cc(-c4ncnc5[nH]ccc45)cn3)C2)CC1 [Example 103, 4-{trans-3-(cyanomethyl)-3-[4-(7H-pyrrolo[2,3-d]pyrimidin-4-yl)-1H-pyrazol-1-yl]cyclobutyl}-N-[(1S)-1-methylpropyl]piperazine-1-carboxamide]
7.00 to 7.60	7.60 to 8.00	CC[C@@H](C)NC(=O)N1CCN([C@H]2C[C@@](CC#N)(n3cc(-c4ncnc5[nH]ccc45)cn3)C2)CC1 [Example 105, 4-{cis-3-(cyanomethyl)-3-[4-(7H-pyrrolo[2,3-d]pyrimidin-4-yl)-1H-pyrazol-1-yl]cyclobutyl}-N-[(1R)-1-methylpropyl]piperazine-1-carboxamide]
< 7.00	7.60 to 8.00	CC[C@H](C)NC(=O)N1CCN([C@H]2C[C@@](CC#N)(n3cc(-c4ncnc5[nH]ccc45)cn3)C2)CC1 [Example 106, 4-{cis-3-(cyanomethyl)-3-[4-(7H-pyrrolo[2,3-d]pyrimidin-4-yl)-1H-pyrazol-1-yl]cyclobutyl}-N-[(1S)-1-methylpropyl]piperazine-1-carboxamide]
< 7.00	7.60 to 8.00	CC(C)NC(=O)N1CCN([C@H]2C[C@@](CC#N)(n3cc(-c4ncnc5[nH]ccc45)cn3)C2)CC1 [Example 108, 4-{cis-3-(cyanomethyl)-3-[4-(7H-pyrrolo[2,3-d]pyrimidin-4-yl)-1H-pyrazol-1-yl]cyclobutyl}-N-isopropylpiperazine-1-carboxamide]
< 7.00	> 8.00	CC(C)[C@@H](C)NC(=O)N1CCN([C@H]2C[C@@](CC#N)(n3cc(-c4ncnc5[nH]ccc45)cn3)C2)CC1 [Example 110, 4-{cis-3-(cyanomethyl)-3-[4-(7H-pyrrolo[2,3-d]pyrimidin-4-yl)-1H-pyrazol-1-yl]cyclobutyl}-N-[(1R)-1,2-dimethylpropyl]piperazine-1-carboxamide]
< 7.00	7.60 to 8.00	CC(C)[C@H](C)NC(=O)N1CCN([C@H]2C[C@@](CC#N)(n3cc(-c4ncnc5[nH]ccc45)cn3)C2)CC1 [Example 111, 4-{cis-3-(cyanomethyl)-3-[4-(7H-pyrrolo[2,3-d]pyrimidin-4-yl)-1H-pyrazol-1-yl]cyclobutyl}-N-[(1S)-1,2-dimethylpropyl]piperazine-1-carboxamide]
7.00 to 7.60	7.60 to 8.00	CNC(=O)N1CCN([C@H]2C[C@](CC#N)(n3cc(-c4ncnc5[nH]ccc45)cn3)C2)CC1 [Example 112, 4-{trans-3-(cyanomethyl)-3-[4-(7H-pyrrolo[2,3-d]pyrimidin-4-yl)-1H-pyrazol-1-yl]cyclobutyl}-N-methylpiperazine-1-carboxamide]
< 7.00	> 8.00	C[C@@H](NC(=O)N1CCN([C@H]2C[C@](CC#N)(n3cc(-c4ncnc5[nH]ccc45)cn3)C2)CC1)C(F)(F)F [Example 113, 4-{trans-3-(cyanomethyl)-3-[4-(7H-pyrrolo[2,3-d]pyrimidin-4-yl)-1H-pyrazol-1-yl]cyclobutyl}-N-[(1R)-2,2,2-trifluoro-1-methylethyl]piperazine-1-carboxamide]
